pIC50: −log10 of the molar value.
What was measured:
[1] = Selectivity index, ratio of IC50 for mouse BALB/3T3 cells to IC50 for human LoVo/Dx cells; assay type: functional
[2] = Selectivity index, ratio of IC50 for mouse BALB/3T3 cells to IC50 for human LoVo cells; assay type: functional
[3] = system: LoVo; experiment: Antiproliferative activity against human LoVo cells; assay type: functional, cell-based
[4] = Antiproliferative activity against human LoVo/DX cells; assay type: functional, cell-based
[5] = Selectivity index, ratio of IC50 for mouse BALB/3T3 cells to IC50 for human MV4-11 cells; assay type: functional
[6] = system: MV4-11; experiment: Antiproliferative activity against human MV4-11 cells; assay type: functional, cell-based
[7] = system: LoVo; experiment: Resistance index, ratio of IC50 for human LoVo/DX cells to IC50 for human LoVo cells; assay type: functional
[8] = system: BALB/3T3; experiment: Cytotoxicity against mouse BALB/3T3 cells; assay type: cell-based

SMILES | pIC50 [3] | pIC50 [6] | Ratio IC50 [1] | Ratio IC50 [2] | pIC50 [4] | Ratio IC50 [5] | Ratio IC50 [7] | pIC50 [8]
CC[C@@]1([C@@H]2O[C@@H]([C@H]3O[C@@](O)(CO)[C@H](C)C[C@@H]3C)C[C@@H]2C)CC[C@H]([C@]2(C)CC[C@]3(C[C@H](O)[C@@H](C)[C@@H]([C@@H](C)[C@@H](OC)[C@H](C)C(=O)O)O3)O2)O1 [MONENSIN] | 5.96 | 7.05 | 34.25 | 19.17 | 6.21 | 232.11 | 0.56 | 4.68
CCN(CC)C(=O)[C@@H](C)[C@H](OC)[C@H](C)[C@H]1O[C@@]2(CC[C@@](C)([C@H]3CC[C@@](CC)([C@@H]4O[C@@H]([C@H]5O[C@@](O)(CO)[C@H](C)C[C@@H]5C)C[C@@H]4C)O3)O2)C[C@H](O)[C@H]1C | 4.97 | 5.26 | 6.07 | 2.63 | 5.33 | 5.17 | 0.43 | 4.55
COc1cccc2c1C(=O)c1c(O)c3c(c(O)c1C2=O)C[C@@](O)(C(=O)CO)C[C@@H]3O[C@H]1C[C@H](N)[C@H](O)[C@H](C)O1 [DOXORUBICIN] | 6.55 |  | 0.08 | 1.89 | 5.17 |  | 23.62 | 6.28
CC[C@@]1([C@@H]2O[C@@H]([C@H]3O[C@@](O)(CO)[C@H](C)C[C@@H]3C)C[C@@H]2C)CC[C@H]([C@]2(C)CC[C@]3(C[C@H](O)[C@@H](C)[C@@H]([C@@H](C)[C@@H](OC)[C@H](C)C(=O)N4CCOCC4)O3)O2)O1 | 4.70 | 5.60 | 10.21 | 2.5 | 5.31 | 19.78 | 0.25 | 4.30
CC[C@@]1([C@@H]2O[C@@H]([C@H]3O[C@@](O)(CO)[C@H](C)C[C@@H]3C)C[C@@H]2C)CC[C@H]([C@]2(C)CC[C@]3(C[C@H](O)[C@@H](C)[C@@H]([C@@H](C)[C@@H](OC)[C@H](C)C(=O)N4CCNCC4)O3)O2)O1 | 5.06 | 5.49 | 1.6 | 3.82 | 4.69 | 10.19 | 2.39 | 4.48

Continued by rising pIC50 [3], values first:

pIC50 [3] | pIC50 [6] | SMILES | Ratio IC50 [1] | Ratio IC50 [2] | pIC50 [4] | Ratio IC50 [5] | Ratio IC50 [7] | pIC50 [8]
4.44 | 4.56 | CC[C@@]1([C@@H]2O[C@@H]([C@H]3O[C@@](O)(CO)[C@H](C)C[C@@H]3C)C[C@@H]2C)CC[C@H]([C@]2(C)CC[C@]3(C[C@H](O)[C@@H](C)[C@@H]([C@@H](C)[C@@H](OC)[C@H](C)C(=O)N(CCOC)CCOC)O3)O2)O1 | 4.16 | 1.15 | 5.00 | 1.53 | 0.28 | 4.38
5.36 | 5.22 | CCCN(CCC)C(=O)[C@@H](C)[C@H](OC)[C@H](C)[C@H]1O[C@@]2(CC[C@@](C)([C@H]3CC[C@@](CC)([C@@H]4O[C@@H]([C@H]5O[C@@](O)(CO)[C@H](C)C[C@@H]5C)C[C@@H]4C)O3)O2)C[C@H](O)[C@H]1C | 1.27 | 1.78 | 5.22 | 1.3 | 1.4 | 5.11
5.43 | 5.48 | CC[C@@]1([C@@H]2O[C@@H]([C@H]3O[C@@](O)(CO)[C@H](C)C[C@@H]3C)C[C@@H]2C)CC[C@H]([C@]2(C)CC[C@]3(C[C@H](O)[C@@H](C)[C@@H]([C@@H](C)[C@@H](OC)[C@H](C)C(=O)N(Cc4ccccc4)Cc4ccccc4)O3)O2)O1 | 3.46 | 3.53 | 5.42 | 3.99 | 1.02 | 4.88

Source: ChEMBL document CHEMBL3616376, “Anti-proliferative activity of Monensin and its tertiary amide derivatives” (Bioorg Med Chem Lett, 2015)
